Test: xn = mol fraction of the nth substance listed

c1c[nH]cn1 + CCCCCC[N+]1(C)CCCC1.O=S(=O)([N-]S(=O)(=O)C(F)(F)F)C(F)(F)F
101.33 kPa, x2 = 0.5
Conditions	viscosity [mPa·s]
343.15 K	11
353.15 K	8

CCCCCC[n+]1ccn(C)c1.[Cl-] + CCCCCC[n+]1ccn(C)c1.F[B-](F)(F)F
101 kPa
Conditions	electrical conductivity [S/m]	viscosity [mPa·s]
303 K, x1 = 0.2	0.0846	–
303 K, x1 = 0.4	0.0415	–
303 K, x1 = 0.6	0.0196	–
303 K, x1 = 0.8	0.00783	–
303 K, x1 = 1	0.00318	–
303.15 K, x1 = 0.2	–	380
303.15 K, x1 = 0.4	–	800
303.15 K, x1 = 0.6	–	1835
308 K, x1 = 0.2	0.113	–
308 K, x1 = 0.4	0.0581	–
308 K, x1 = 0.6	0.029	–
308 K, x1 = 0.8	0.0123	–
308 K, x1 = 1	0.00531	–
308.15 K, x1 = 0.2	–	275
308.15 K, x1 = 0.4	–	550
308.15 K, x1 = 0.6	–	1194
313 K, x1 = 0.2	0.147	–
313 K, x1 = 0.4	0.0791	–
313 K, x1 = 0.6	0.0413	–
313 K, x1 = 0.8	0.0186	–
313 K, x1 = 1	0.00852	–
313.15 K, x1 = 0.2	–	204
313.15 K, x1 = 0.4	–	390
313.15 K, x1 = 0.6	–	810
313.15 K, x1 = 0.8	–	1892
318 K, x1 = 0.2	0.19	–
318 K, x1 = 0.4	0.106	–
318 K, x1 = 0.6	0.0575	–
318 K, x1 = 0.8	0.0272	–
318 K, x1 = 1	0.0133	–
318.15 K, x1 = 0.2	–	156
318.15 K, x1 = 0.4	–	283
318.15 K, x1 = 0.6	–	560
318.15 K, x1 = 0.8	–	1237
323 K, x1 = 0.2	0.24	–
323 K, x1 = 0.4	0.14	–
323 K, x1 = 0.6	0.0791	–
323 K, x1 = 0.8	0.0392	–
323 K, x1 = 1	0.0202	–
323.15 K, x1 = 0.2	–	122
323.15 K, x1 = 0.4	–	213
323.15 K, x1 = 0.6	–	400
323.15 K, x1 = 0.8	–	840
323.15 K, x1 = 1	–	1879
328 K, x1 = 0.2	0.299	–
328 K, x1 = 0.4	0.179	–
328 K, x1 = 0.6	0.106	–
328 K, x1 = 0.8	0.0547	–
328 K, x1 = 1	0.0295	–
328.15 K, x1 = 0.2	–	98
328.15 K, x1 = 0.4	–	163
328.15 K, x1 = 0.6	–	296
328.15 K, x1 = 0.8	–	580
328.15 K, x1 = 1	–	1228
333 K, x1 = 0.2	0.368	–
333 K, x1 = 0.4	0.227	–
333 K, x1 = 0.6	0.139	–
333 K, x1 = 0.8	0.0747	–
333 K, x1 = 1	0.0423	–
333.15 K, x1 = 0.2	–	78
333.15 K, x1 = 0.4	–	128
333.15 K, x1 = 0.6	–	220
333.15 K, x1 = 0.8	–	420
333.15 K, x1 = 1	–	840

CCC(C)O (stereo unspecified) + CCCCCC[n+]1ccn(C)c1.O=[N+]([O-])[O-]
100 kPa, x2 = 0
Conditions	viscosity [mPa·s]
293.15 K	3.67
298.15 K	3.04
303.15 K	2.54
308.15 K	2.13
313.15 K	1.8
318.15 K	1.54
323.15 K	1.33

CCCCCC[n+]1ccn(C)c1.[Cl-] + CCCCCO
101 kPa
Conditions	viscosity [mPa·s]
293.15 K, x1 = 0.0088	4.33
293.15 K, x2 = 0.849	10.53
303.15 K, x1 = 0.0042	3.1
303.15 K, x1 = 0.0166	3.41
303.15 K, x2 = 0.1514	1675
313.15 K, x1 = 0.0042	2.37
313.15 K, x2 = 0.2971	259.6
313.15 K, x2 = 0.8012	8.12
323.15 K, x2 = 0	783
323.15 K, x2 = 0.8012	6.29
333.15 K, x2 = 0.7018	9.13

CCCC[N+]1(C)CCCCC1.F[P-](F)(F)(F)(F)F + CCCC[N+]1(C)CCCC1.F[P-](F)(F)(F)(F)F
102 kPa
Conditions	viscosity [mPa·s]
353.15 K, x1 = 0.5	154
383.15 K, x1 = 0.3	41

Source: the CheMixHub ionic liquid set
